Patent US6583156B1 (Vernalis Research Limited, priority 1998, dated 2003)
Counter-ions that a name gives are not always drawn.

Target: human adenosine A2A receptors (Homo sapiens, UniProt P29274)
Sequence (P29274 whole entry): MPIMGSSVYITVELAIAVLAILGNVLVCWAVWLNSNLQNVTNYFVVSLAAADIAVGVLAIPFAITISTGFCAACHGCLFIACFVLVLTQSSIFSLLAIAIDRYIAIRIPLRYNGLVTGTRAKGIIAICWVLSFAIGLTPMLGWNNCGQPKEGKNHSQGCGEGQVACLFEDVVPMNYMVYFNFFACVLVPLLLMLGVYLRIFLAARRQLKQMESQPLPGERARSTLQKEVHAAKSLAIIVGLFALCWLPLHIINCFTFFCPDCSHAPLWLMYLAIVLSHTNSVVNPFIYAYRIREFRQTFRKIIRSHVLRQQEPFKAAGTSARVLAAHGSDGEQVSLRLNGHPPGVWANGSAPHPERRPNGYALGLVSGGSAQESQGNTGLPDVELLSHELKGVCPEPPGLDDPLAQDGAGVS
Test: Binding affinities at hA2A receptors, displacement of [3H]-CGS 21680
Conditions: in vitro binding, radioligand [3H]-CGS 21680
Excerpt: The compounds were examined in an assay measuring in vitro binding to human adenosine A2A receptors by determining the displacement of the adenosine A2A receptor selective radioligand [^3H]-CGS 21680 using standard techniques.
Compound OC(c1ccccc1)c1cc(C(F)(F)F)nc2c(C(F)(F)F)cccc12 (stereo not drawn) [Example 1, 2,8-Bis(trinfluoromethyl)-α-phenyl-4-quinolinemethanol] has a Ki of 1700 nM. In the case of OC(c1cccs1)c1cc(C(F)(F)F)nc2c(C(F)(F)F)cccc12 (stereo not drawn) [Example 2, 2,8-Bis(trifluoromethyl)-α-(2-thienyl)-4-quinolinemethanol], the Ki is reported as 1550 nM. Work on OC(c1ccsc1)c1cc(C(F)(F)F)nc2c(C(F)(F)F)cccc12 (stereo not drawn) [Example 3, 2,8-Bis(trifluoromethyl)-α-(3-thienyl)-4-quinolinemethanol] yielded a Ki of 954 nM. Work on OC(c1ccco1)c1cc(C(F)(F)F)nc2c(C(F)(F)F)cccc12 (stereo not drawn) [Example 4, 2,8-Bis(trifluoromethyl)-α-(2-furyl)-4-quinolinemethanol] yielded a Ki of 1120 nM. Work on OC(c1ccoc1)c1cc(C(F)(F)F)nc2c(C(F)(F)F)cccc12 (stereo not drawn) [Example 5, 2,8-Bis(trifluoromethyl)-α-(3-furyl)-4-quinolinemethanol] yielded a Ki of 1030 nM. For OC(c1cc(C(F)(F)F)nc2c(C(F)(F)F)cccc12)C1CCCCC1 (stereo not drawn) [Example 7, 2,8-Bis(trifluoromethyl)-α-clohexyl-4-quinolinemethanol], the Ki was 852 nM. OC1(c2cc(C(F)(F)F)nc3c(C(F)(F)F)cccc23)CCc2ccccc21 (stereo not shown) [Example 10, 1-(2,8-Bis(tnfluoromethyl)-4-quinolinyl)-1-indanol] gave a Ki of 1750 nM. OC1(c2cc(C(F)(F)F)nc3c(C(F)(F)F)cccc23)CCCc2ccccc21 (stereo not shown) [Example 11, 1-(2,8-Bis(trifluoromethyl)-4-quinolinyl)-1,2,3,4-tetrabydro-1-naphthol] gave a Ki of 1360 nM. Work on OC1Cc2ccccc2C1c1cc(C(F)(F)F)nc2c(C(F)(F)F)cccc12 (stereo not shown) [Example 12, 1-(2,8-Bis(trifluorometbyl)-4-quinolinyl)-2-indanol] yielded a Ki of 1900 nM. In the case of Cc1c(C(F)(F)F)nc2c(C(F)(F)F)cccc2c1C(O)c1cccs1 (stereo not drawn) [Example 16, 2,8-Bis(trifluoromethyl)-3-methyl-α-(2-thienyl)-4-quinolinemethanol], the Ki is reported as 1790 nM. In the case of OC(c1ccccc1Cl)c1cc(C(F)(F)F)nc2c(C(F)(F)F)cccc12 (stereo not drawn) [Example 18, 2,8-Bis(trifluoromethyl)-α-(2-chlorophenyl)-4-quinolinemethanol], the Ki is reported as 1190 nM. O=[N+]([O-])c1ccccc1C(O)c1cc(C(F)(F)F)nc2c(C(F)(F)F)cccc12 (stereo not drawn) [Example 19, 2,8-Bis(trifluoromethyl)-α-(2-nitrophenyl)-4-quinolinemethanol] showed a Ki of 1740 nM. Compound OC(c1c(Cl)cccc1Cl)c1cc(C(F)(F)F)nc2c(C(F)(F)F)cccc12 (stereo not drawn) [Example 20, 2,8-Bis(trifluoromethyl)-α-(2,6-dichlorophenyl)-4-quinolinemethanol] has a Ki of 649 nM. With OC(c1ccccc1Br)c1cc(C(F)(F)F)nc2c(C(F)(F)F)cccc12 (stereo not drawn) [Example 21, 2,8-Bis(trifluoromethyl)-α-(2-bromophenyl)-4-quinolinemethanol] the Ki was 743 nM. OC(c1ccccc1F)c1cc(C(F)(F)F)nc2c(C(F)(F)F)cccc12 (stereo not drawn) [Example 22, 2,8-Bis(trifluoromethyl)-α-(2-fluorophenyl)-4-quinolinemethanol] showed a Ki of 1920 nM. For COc1ccccc1C(O)c1cc(C(F)(F)F)nc2c(C(F)(F)F)cccc12 (stereo not shown) [Example 23], the Ki was 701 nM. With Cc1cccc2c(C(O)c3ccccc3)cc(C(F)(F)F)nc12 (stereo not drawn) [Example 26, 8-Methyl-α-phenyl-2-trifluoromethyl-4-quinolinemethanol] the Ki was 1110 nM. Compound Cc1cccc2c(C(O)c3ccccc3Cl)cc(C(F)(F)F)nc12 (stereo not drawn) [Example 27, α-(2-Chlorophenyl)-8-methyl-2-trinfluoromethyl-4-quinolinemethanol] has a Ki of 1130 nM. Cc1cccc2c(C(O)c3ccsc3)cc(C(F)(F)F)nc12 (stereo not drawn) [Example 28, 8-Methyl-α-(3-thienyl)-2-trifluoromethyl-4-quinolinemethanol] showed a Ki of 574 nM. With Cc1cccc2c(C(O)C3CCCCC3)cc(C(F)(F)F)nc12 (stereo not drawn) [Example 29, α-Cyclohexyl-8-methyl-2-trifluoromethy-4-quinolinemethanol] the Ki was 965 nM. Work on CCc1cccc2c(C(O)c3ccsc3)cc(C(F)(F)F)nc12 (stereo not drawn) [Example 32, 8-Ethyl-α-(3-thienyl)-2-trifluoromethyl-4-quinolinemethanol] yielded a Ki of 1070 nM. OC(c1ccsc1)c1cc(C(F)(F)F)nc2c(Cl)cccc12 (stereo not drawn) [Example 47, 8-Chloro-α-(3-thienyl)-2-trifluoromethyl-4-quinolinemethanol] gave a Ki of 1070 nM. Compound CC(O)(c1cc2ccccc2o1)c1cc(C(F)(F)F)nc2c(C(F)(F)F)cccc12 (stereo not shown) [Example 51] has a Ki of 1520 nM. Oc1ccc(C(O)c2cc(C(F)(F)F)nc3c(C(F)(F)F)cccc23)cc1 (stereo not drawn) [Example 74, 2,8-Bis(trifluoromethyl)-α-(4-hydroxyphenyl)-4-quinolinemethanol] showed a Ki of 1630 nM.

Tested on: not given
Test: not given
Conditions: not given
For COc1cc(C(O)C2CCCCC2)c2ccccc2n1.Cl (stereo not shown), the melting point was 155.9 to 156.3 °C. For Cc1cc(C(O)c2ccccc2)c2ccccc2n1 (stereo not drawn) (as salt: salt) [Example 39, 2-Methyl-α-phenyl-4-quinolinemethanol], the melting point was 192 °C (dec.). For Cc1cc(C(O)c2ccsc2)c2ccccc2n1 (stereo not drawn) (as salt: salt) [Example 42, 2-Methyl-α-(3-thienyl)-4-quinolinemethanol], the melting point was 200 °C (dec.). With OC(c1cccs1)c1ccnc2ccccc12 (stereo not drawn) (as salt: salt) [Example 49, α-(2-Thienyl)-4-quinolinemethanol] the melting point was 173 °C (dec.). OC(c1ccccc1)c1cc(C(F)(F)F)nc2c(C(F)(F)F)cccc12 (stereo not drawn) [Example 1, 2,8-Bis(trinfluoromethyl)-α-phenyl-4-quinolinemethanol] showed a melting point of 151 to 152 °C. OC(c1cc(C(F)(F)F)nc2c(C(F)(F)F)cccc12)c1cc(C(F)(F)F)nc2c(C(F)(F)F)cccc12 [Example 8, Bis(2,8-bis(trifluoromethyl)-4-quinolinyl)methanol] showed a melting point of 198 to 199 °C. For OC(Cc1cc(C(F)(F)F)nc2c(C(F)(F)F)cccc12)c1ccccc1 (stereo not drawn) [Example 9, 2,8-Bis(trifluoromethyl)-α-phenyl-4-quinolineethanol], the melting point was 111 to 112 °C. With OC1(c2cc(C(F)(F)F)nc3c(C(F)(F)F)cccc23)CCCc2ccccc21 (stereo not shown) [Example 11, 1-(2,8-Bis(trifluoromethyl)-4-quinolinyl)-1,2,3,4-tetrabydro-1-naphthol] the melting point was 128.8 to 129.4 °C. Cc1c(C(F)(F)F)nc2c(C(F)(F)F)cccc2c1C(O)c1cccs1 (stereo not drawn) [Example 16, 2,8-Bis(trifluoromethyl)-3-methyl-α-(2-thienyl)-4-quinolinemethanol] gave a melting point of 125.1 to 125.8 °C. For OC(c1c(Cl)cccc1Cl)c1cc(C(F)(F)F)nc2c(C(F)(F)F)cccc12 (stereo not drawn) [Example 20, 2,8-Bis(trifluoromethyl)-α-(2,6-dichlorophenyl)-4-quinolinemethanol], the melting point was 151.2 to 151.7 °C. For OC(c1ccccc1Br)c1cc(C(F)(F)F)nc2c(C(F)(F)F)cccc12 (stereo not drawn) [Example 21, 2,8-Bis(trifluoromethyl)-α-(2-bromophenyl)-4-quinolinemethanol], the melting point was 147 to 149 °C. In the case of OC(c1ccccc1F)c1cc(C(F)(F)F)nc2c(C(F)(F)F)cccc12 (stereo not drawn) [Example 22, 2,8-Bis(trifluoromethyl)-α-(2-fluorophenyl)-4-quinolinemethanol], the melting point is reported as 119.5 to 120.8 °C. Work on COc1ccccc1C(O)c1cc(C(F)(F)F)nc2c(C(F)(F)F)cccc12 (stereo not shown) [Example 23] yielded a melting point of 132 to 134 °C. With Cc1cccc2c(C(O)c3ccsc3)cc(C(F)(F)F)nc12 (stereo not drawn) [Example 28, 8-Methyl-α-(3-thienyl)-2-trifluoromethyl-4-quinolinemethanol] the melting point was 113 to 114 °C. In the case of CN(C)c1cc(C(O)c2ccccc2)c2ccccc2n1 (stereo not drawn) [Example 35, 2-Dimethylamino-α-phenyl-4-quinolinemethanol], the melting point is reported as 153.6 to 154.3 °C. For OC(c1ccsc1)c1cc(-c2ccccc2)nc2ccccc12 (stereo not drawn) [Example 41, 2-Phenyl-α-(3-thienyl)-4-quinolinemethanol], the melting point was 158 to 159 °C. Compound OC(c1ccsc1)c1cc(C(F)(F)F)nc2ccccc12 (stereo not drawn) [Example 43, α-(3-Thienyl)-2-trifluoromethyl-4-quinolinemethanol] has a melting point of 144 to 146 °C. With OC1(c2cc(C(F)(F)F)nc3ccccc23)CCSC1 (stereo not shown) [Example 44, 3-(2-trifluoromethyl-4-quinolinyl)tetrahydrothiophene-3-ol] the melting point was 130 to 131 °C. COc1cccc2c(C(O)c3ccsc3)cc(C(F)(F)F)nc12 (stereo not drawn) [Example 46, 8-Methoxy-α-(3-thienyl)-2-trifluoromethyl-4-quinolinemethanol] gave a melting point of 157 to 158 °C. OC(Cc1cc(C(F)(F)F)nc2c(C(F)(F)F)cccc12)c1cc2ccccc2o1 (stereo not drawn) [Example 51, α-(2-Benzofuranyl)-2,8-bis(trifluoromethyl)-4-quinolineethanol] gave a melting point of 123 to 124 °C. OC1(c2cc(C(F)(F)F)nc3c(C(F)(F)F)cccc23)C=CCC1 (stereo not shown) [Example 53, 1-(2,8-Bis(trifluoromethyl)-4-quinolinyl)cyclopent-2-ene-1-ol] gave a melting point of 73 to 74 °C. For Cc1cc(C(O)C2CCCCC2)c2cccc(C)c2n1 (stereo not drawn) [Example 54, α-Cyclohexyl-2,8-dimethyl-4-quinolinemethanol], the melting point was 155 to 157 °C. Compound O=C(NCc1ccccc1)c1cc(C(O)C2CCCCC2)c2ccccc2n1 (stereo not shown) [Example 61, N-Benzyl-4-(1-cyclohexyl-1-hydroxymethyl)-2-quinolinecarboxamide] has a melting point of 152.8 to 153.3 °C. For Cc1cccc2c(C(O)c3ccccn3)cc(Br)nc12 (stereo not drawn) [Example 64, 2-Bromo-8-methyl-α-(2-pyridyl)-4-quinolinemethanol], the melting point was 149 °C (dec.). Work on Cc1cccc2c(C(O)c3ccccc3)cc(Br)nc12 (stereo not drawn) [Example 65, 2-Bromo-8-methyl-α-phenyl-4-quinolinemethanol] yielded a melting point of 130.7 to 131.8 °C. In the case of COc1cc(C(O)c2ccccn2)c2cccc(C)c2n1 (stereo not drawn) [Example 67, 2-Methoxy-8-methyl-α-(2-pyridyl)-4-quinolinemethanol], the melting point is reported as 126.8 to 127.6 °C. With Nc1ccccc1C(O)c1cc(C(F)(F)F)nc2c(C(F)(F)F)cccc12 (stereo not drawn) [Example 76, α-(2-Aminophenyl)-2,8-bis(trifluoromethyl)-4-quinolinemethanol] the melting point was 145.9 to 146.2 °C. Work on OC(c1cc(NCc2ccccc2)nc2ccccc12)C1CCCCC1 (stereo not drawn) [Example 79, 2-Benzylamino-α-cyclohexyl-4-quinolinemethanol] yielded a melting point of 122.5 to 123.1 °C. OCCCCC(O)c1cc(C(F)(F)F)nc2c(C(F)(F)F)cccc12 (stereo not shown) [Example 82, 1-(2,8-Bis(trifluoromethyl)-4-quinolinyl)-5-hydroxypentanol] showed a melting point of 120.6 to 120.9 °C. For OC(c1ccccc1)c1cc(Cl)nc2ccccc12 (stereo not drawn) [Example 83, 2-Chloro-α-phenyl-4-quinolinemethanol], the melting point was 144 to 146 °C. With Cc1cccc2c(C(O)c3ccccn3)cc(O)nc12 (stereo not drawn) [Example 88, 2-Hydroxy-8-methyl-α-(2-pyridyl)-4-quinolinemethanol] the melting point was 215 °C (dec.). In the case of Oc1cc(C(O)(c2ccccc2)c2ccccc2)c2ccccc2n1 [Example 90, α,α-Diphenyl-2-hydroxy-4-quinolinemethanol], the melting point is reported as greater than 350 °C. In the case of OC(c1ccccc1)c1cc(-c2ccccc2)nc2ccccc12 (stereo not drawn) [Example 91, 2,α-Diphenyl-4-quinolinemethanol], the melting point is reported as 111 to 112 °C. Work on FC(F)(F)c1cc(-c2ccco2)c2cccc(C(F)(F)F)c2n1 [Example 93, 2,8-Bis(trifluoromethyl)-4-(2-furanyl)quinoline] yielded a melting point of 82 to 83 °C.
